Source: BindingDB's records for doi:10.1021/bi00118a023 (University of Akron, 1992)

Molecular target: T1, Bifunctional aspartokinase/homoserine dehydrogenase 1 (Escherichia coli (strain K12), UniProt P00561)
T1 sequence (P00561 whole entry): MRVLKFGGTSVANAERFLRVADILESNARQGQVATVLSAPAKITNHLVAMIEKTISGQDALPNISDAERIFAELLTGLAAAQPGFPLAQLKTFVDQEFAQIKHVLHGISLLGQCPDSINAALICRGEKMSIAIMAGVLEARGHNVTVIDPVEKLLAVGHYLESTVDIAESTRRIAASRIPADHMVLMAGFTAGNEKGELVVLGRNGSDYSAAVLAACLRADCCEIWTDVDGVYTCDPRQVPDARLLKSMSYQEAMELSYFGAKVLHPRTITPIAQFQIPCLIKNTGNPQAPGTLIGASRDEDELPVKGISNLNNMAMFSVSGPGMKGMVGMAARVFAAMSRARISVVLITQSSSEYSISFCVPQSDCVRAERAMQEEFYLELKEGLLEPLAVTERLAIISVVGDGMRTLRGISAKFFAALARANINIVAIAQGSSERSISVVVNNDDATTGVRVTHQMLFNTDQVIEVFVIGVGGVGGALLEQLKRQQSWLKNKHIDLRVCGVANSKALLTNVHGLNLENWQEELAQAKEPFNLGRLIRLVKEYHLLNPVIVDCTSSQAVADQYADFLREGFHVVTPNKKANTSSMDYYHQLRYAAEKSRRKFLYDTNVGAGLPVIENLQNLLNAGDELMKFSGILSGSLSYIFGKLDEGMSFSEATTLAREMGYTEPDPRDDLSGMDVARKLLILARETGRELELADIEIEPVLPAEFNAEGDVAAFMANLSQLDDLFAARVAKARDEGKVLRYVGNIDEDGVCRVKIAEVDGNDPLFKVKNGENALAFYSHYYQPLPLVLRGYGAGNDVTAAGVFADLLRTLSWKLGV
Assay: Inhibition Assay
Description: Analogues of L-aspartic acid and beta-aspartyl phosphate were examined as inhibitors in the aspartokinase I reaction by using the coupled reaction with ASA-DH.

Compound | Ki [mM]
COC(=O)C[C@H](N)C(=O)OC [L-Aspartic dimethyl ester] | 71
N[C@@H](CCC(=O)O)C(=O)O [L-Glutamic acid] | 38
NC(=O)C[C@@H](N)C(=O)O [D-asparagine] | 39
NCC(O)C(=O)O (racemic) [DL-Isoserine] | 30
NC(CC(=O)O)CC(=O)O [3-Aminoglutarate] | 45
NC(CCP(=O)(O)O)C(=O)O (stereo not drawn) [DL-2-amino-4-phosphonobutyrate] | 61
N[C@@H](CC(=O)NO)C(=O)O [D-aspartate-beta-hydroxamate] | 16
N[C@@H](COP(=O)(O)O)C(=O)O [O-phospho-L-serine] | 12
N[C@@H](CC(=O)O)C(=O)OCc1ccccc1 [D-aspartate alpha-benzyl ester] | 11
NC(CCCP(=O)(O)O)C(=O)O (stereo not drawn) [DL-2-Amino-5-phosphonovalerate] | 8.4
N[C@@H](CCOP(=O)(O)O)C(=O)O [Homoserine phosphate] | 6
CCC(N)C(=O)O (stereo not given) [2-Aminobutyrate] | 5
CCC[C@H](N)C(=O)O [L-Norvaline] | 3.1
CC(C)[C@H](N)C(=O)O [L-Valine] | 32
COC(=O)CC[C@H](N)C(=O)O [L-glutamate gamma-methyl ester] | 24
C[C@H](N)C(=O)O [L-alanine] | 99
N[C@@H](CN(O)N=O)C(=O)O [L-Alanosine] | 7.5
CCCC[C@H](N)C(=O)O [L-norleucine] | 24
NCC[C@H](N)C(=O)O [2,4-Diaminobutanoate] | 10
NC(C(=O)O)C(=O)O [Aminomalonate] | 23
